In the test the test system is M5123 hepatoma. In kind it is in vivo. As to conditions: for % Test/Control / Tumor Weight (mg) Day 18: 100 μg/inj., s.c., b.i.d., q.d. 1-20; for % Test/Control: day 18; for Tumor Weight (mg) Day 18: mean ± s.e.m. The source says:
The M5123 hepatoma cells, obtained from Dr. H. P. Morris at the National Cancer Institute, were induced in the Buffalo strain of rats by ingestion of N-(2-fluorenyl-phthalamic acid) and established in serial transplantation. Implantation of the M5123 hepatoma cells in an immunodeficient athymic mouse reproducibly results in progressively growing, lethal tumor.
In contrast to the subrenal capsule assay, in the subcutaneous assay, tumor xenografts are implanted subcutaneously, rather than under the subrenal capsule, and treatment can be initiated at any selected time after the implantation.
In this assay, tumors were implanted subcutaneously in the right flank of athymic female mice and test compounds, BIM-26159, BIM-26187, BIM-26189, BIM-26218, BIM-26223 and BIN-26228, and control were injected subcutaneously in the left flank. For the structures of BIM-26159, BIM-26187, BIM-26189, see "Summary of the Invention" above. The structures of BIM-26223 and BIM-26228 are as follows:
Response of an implanted tumor to the treatment was monitored as follows. The length and width of the tumor were first measured using sensitive Vernier calipers. Tumor weight was then calculated based on the measurements as follows: [length (mm)×width (mm)^2 ]/2 mg. In addition to tumor size or weight, this assay system permits the parameter of "lag time", i.e., the effect of early treatment on the growth potential of tumors to reach a certain size.
In one experiment, thirty two mice were implanted subcutaneously with M5123 hepatoma xenografts on day 0 and randomized into four groups of eight animals per group. The bombesin analog BIM-26159 was administered at 250, 50, 10 μg per injection, S.C., b.i.d.,q.d. 1-18.
In another experiment, we tested the activity of five bombesin analogs, i.e., BIM-26187, BIM-26189, BIM-26218, BIM-26223 and BIM-26228, over a period of 18 days. Forty mice were implanted s.c. with M5123 hepatoma xenografts on day 0, and the randomized into ten animals in the control group and six animals per test group. All compounds were administered at 100 μg per injection, s.c., b.i.d., q.d. 1-18.

Take “D-Phe-Gln-Trp-Ala-Val-Gly-CHxAla-Leu-NH2 [BIM-26228]”: the “% Test/Control” value is listed as 115% and the “Tumor Weight (mg) Day 18” value is given as 667.2 ± 181.6 mg. Further, the “effect on growth of the tumor cells (in words)” value (100 μg per injection, over 18 days) is recorded as “slightly stimulated growth”.
Regarding `CC(C)C[C@H](NC(=O)[C@H](CC(C)C)NC(=O)[C@H](Cc1c[nH]cn1)NC(=O)CNC(=O)[C@@H](NC(=O)[C@H](C)NC(=O)[C@H](Cc1c[nH]c2ccccc12)NC(=O)[C@H](CCC(N)=O)NC(=O)[C@H](N)Cc1ccccc1)C(C)C)C(N)=O` [BIM-26187, D-Phe-Gln-Trp-Ala-Val-Gly-His-Leu-Leu-NH2], the “% Test/Control” value was found to be 83% and the “Tumor Weight (mg) Day 18” value turned out to be 482.8 ± 175.0 mg.

(Values after patent US6083915A, “Method for treating liver cancer” (Biomeasure, Inc., priority 1991, dated 2000).)
